# From US5254565A, “Quinoline derivatives, their production and use” (priority 1988, dated 1993)
# Like-named read-outs stand apart in the source and are kept apart here.
# Molecular target: T1, Acyl-CoA : cholesterol acyltransferase (ACAT) (Rattus norvegicus, UniProt Q7TQM4)
# T1 construct: from the mucosal microsome fraction of the small intestine of male, 6-week old Sprague-Dawley rats; from tissue; host or cells: mucosal microsome fraction of the small intestine of male 6-week old Sprague-Dawley rats, fasted for 20 hours
# T1 sequence (Q7TQM4 1-524): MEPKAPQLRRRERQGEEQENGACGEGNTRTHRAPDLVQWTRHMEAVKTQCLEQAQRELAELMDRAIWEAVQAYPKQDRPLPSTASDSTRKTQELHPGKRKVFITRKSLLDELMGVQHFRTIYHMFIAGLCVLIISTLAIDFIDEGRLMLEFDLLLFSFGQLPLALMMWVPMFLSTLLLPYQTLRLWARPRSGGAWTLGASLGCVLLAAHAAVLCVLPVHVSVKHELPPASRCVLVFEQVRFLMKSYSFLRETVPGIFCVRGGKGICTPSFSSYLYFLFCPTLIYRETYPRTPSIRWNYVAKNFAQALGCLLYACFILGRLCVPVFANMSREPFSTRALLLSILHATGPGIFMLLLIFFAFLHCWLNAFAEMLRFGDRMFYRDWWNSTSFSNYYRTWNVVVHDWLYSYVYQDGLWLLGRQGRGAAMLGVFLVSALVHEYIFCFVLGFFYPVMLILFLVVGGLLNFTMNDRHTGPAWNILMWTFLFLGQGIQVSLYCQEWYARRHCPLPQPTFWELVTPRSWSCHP
# Assay: Acyl-CoA : cholesterol acyltransferase (ACAT) inhibitory activity: production of labeled cholesterol ester from [1-^14 C] oleoyl-CoA and endogenous cholesterol
# Type: biochemical
# Settings: for inhibition at 1 µM: 10^-6 M test compound
# Description: 1. Acyl-CoA : cholesterol acyltransferase (ACAT) inhibitory activity.
# The enzyme ACAT was prepared by the method of Heider et al. described in Journal of Lipid Research, Vol. 24, page 1127 (1982), from the mucosal microsome fraction of the small intestine of male, 6-week old Sprague-Dawley rats which had been fasted for 20 hours.
# ACAT activity was calculated by the method of Helgerud et al. described in Journal of Lipid Research, Vol. 22, page 271 (1981), namely, by measuring the amount of the labeled cholesterol ester produced from [1-^14 C] oleoyl-CoA and endogenous cholesterol.
# Inhibition rates (%) of the production of the labeled cholesterol ester wherein 10^-6 M-10^-8 M of test compounds were added are shown as an index of ACAT inhibitory activity in Table 1.
Compound,inhibition at 1 µM (read-out: ACAT Inhibition Rate) [%],also measured
"Cc1cc(C)c2ncc(NC(=O)Nc3c(C)cccc3C)c(-c3ccccc3Cl)c2c1 [Example 70, 4-(2-Chlorophenyl)-6,8-dimethyl-3-[3-(2,6-dimethyl-phenyl)ureido]quinoline]",97.9,
"Cc1cc(Cl)cc2c(-c3ccccc3Cl)c(NC(=O)Nc3ccc(F)cc3F)cnc12 [Example 38, 6-Chloro-4-(2-chlorophenyl)-3-[3-(2,4-difluorophenyl)ureido]-8-methylquinoline]",98.3,
"O=C(Nc1ccc(F)cc1F)Nc1cnc2ccc(Cl)cc2c1-c1ccc(O)c(O)c1 [Example 75, 6-chloro-3-[3-(2,4-difluorophenylureido]-4-(3,4-dihydroxyphenyl)quinoline.1/2hydrate]",61.2,
"Cc1cc2c(-c3ccccc3Cl)c(NC(=O)Nc3ccc(F)cc3F)cnc2c(C)c1C [Example 74, 4-(2-Chlorophenyl)-3-[3-(2,4-difluorophenyl)ureido]-6,7,8-trimethylquinoline]",99.3,
"COc1ccc(-c2c(NC(=O)Nc3ccc(F)cc3F)cnc3ccc(Cl)cc23)cc1 [Example 28, 6-Chloro-3-[3-(2,4-difluorophenyl)ureido]-4-(4-methoxyphenyl)quinoline]",92.7,
"Cc1cc(C)c2ncc(NC(=O)Nc3cc(C(C)C)c(O)c(C(C)C)c3)c(-c3ccccc3Cl)c2c1 [Example 79, 4-(2-chlorophenyl)-3-[3-(4-hydroxy-3,5-diisopropylphenyl)ureido]-6,8-dimethylquinoline]",79.9,
"Cc1ccccc1-c1c(NC(=O)Nc2ccc(F)cc2F)cnc2ccc(Cl)cc12 [Example 27, 6-Chloro-3-[3-(2,4-difluorophenyl)ureido]-4-(2-methylphenyl)quinoline]",97.2,
"Cc1ccc2ncc(NC(=O)Nc3ccc(F)cc3F)c(-c3ccccc3C)c2c1 [Example 31, 3-[3-(2,4-Difluorophenyl)ureido]-6-methyl-4-(2-methylphenyl)quinoline]",96.9,
"CSc1ccccc1-c1c(NC(=O)Nc2ccc(F)cc2F)cnc2ccc(Cl)cc12 [Example 52, 6-Chloro-3-[3-(2,4-difluorophenyl)ureido]-4-(2-methylthiophenyl)quinoline]",97.9,
"O=C(Nc1ccc(F)cc1F)Nc1cnc2ccc(Cl)cc2c1-c1ccc(Cl)cc1 [Example 25, 6-Chloro-4-(4-chlorophenyl)-3-[3-(2,4-difluorophenyl)ureido]quinoline]",77,
"O=C(Nc1ccc(F)cc1F)Nc1cnc2ccc(SC(F)F)cc2c1-c1ccccc1 [Example 53, 6-Difluoromethylthio-3-[3-(2,4-difluorophenyl)ureido]-4-phenylquinoline]",85.7,
"CC(C)c1ccc2ncc(NC(=O)Nc3ccc(F)cc3F)c(-c3ccccc3)c2c1 [Example 15, 3-[3-(2,4-Difluorophenyl)ureido]-6-isopropyl-4-phenylquinoline]",91.6,
"Cc1cccc2ncc(NC(=O)Nc3ccc(F)cc3F)c(-c3ccccc3Cl)c12 [Example 83, 4-(2-Chlorophenyl)-3-[3-(2,4-difluorophenyl)ureido]-5-methylquinoline]",87.3,
"CC(=O)Oc1c(C)cc(NC(=O)Nc2cnc3c(C)cc(C)cc3c2-c2ccccc2Cl)cc1C [Example 77, 3-[3-(4-Acetoxy-3,5-dimethylphenyl)ureido]-4-(2-chlorophenyl)-6,8-dimethylquinoline]",96.2,
"Cc1cc(C)c2ncc(NC(=O)Nc3ccc(Cl)cc3)c(-c3ccccc3Cl)c2c1 [Example 51, 4-(2-Chlorophenyl)-3-[3-(4-chlorophenyl)ureido]-6,8-dimethylquinoline]",97.2,
"Cc1ccc(-c2c(NC(=O)Nc3ccc(F)cc3F)cnc3ccc(Cl)cc23)cc1 [Example 26, 6-Chloro-3-[3-(2,4-difluorophenyl)ureido]-4-(4-methylpheynyl)quinoline]",87.4,

# Further lines, with some results ahead:
inhibition at 1 µM (read-out: ACAT Inhibition Rate) [%],Compound,also measured
98,"Cc1cc(C)c2ncc(NC(=O)Nc3c(C(C)C)cccc3C(C)C)c(-c3ccccc3Cl)c2c1 [Example 71, 4-(2-Chlorophenyl)-3-[3-(2,6-diisopropylphenyl)ureido]-6,8-dimethylquinoline]",
95.1,"COc1ccc(-c2c(NC(=O)Nc3ccc(F)cc3F)cnc3ccc(Cl)cc23)cc1OC [Example 60, 6-Chloro-3-[3-(2,4-difluorophenyl)ureido]-4-(3,4-dimethoxyphenyl)quinoline]",
91.8,"O=C(Nc1ccc(F)cc1F)Nc1cnc2ccccc2c1-c1ccccc1Cl [Example 21, 4-(2-Chlorophenyl)-3-[3-(2,4-difluorophenyl)ureido]quinoline]",
75.7,"O=C(Nc1cnc2ccc(Cl)cc2c1-c1ccccc1)Nc1c(F)cccc1F [Example 46, 6-chloro-3-[3-(2,6-difluorophenyl)ureido]-4-phenylquinoline]",
97,"CCCCc1ccc2ncc(NC(=O)Nc3ccc(F)cc3F)c(-c3ccccc3Cl)c2c1 [Example 35, 6-Butyl-4-(2-chlorophenyl)-3-[3-(2,4-difluorophenyl)ureido]quinoline]",
96.8,"O=C(Nc1ccc(Cl)cc1)Nc1cnc2ccc(Cl)cc2c1-c1ccccc1Cl [Example 50, 6-Chloro-4-(2-Chlorophenyl)-3-[3-(4-chlorophenyl)ureido]quinoline]",
54.5,"O=C(Nc1ccc(Cl)cc1)Nc1cnc2ccc(Cl)cc2c1-c1ccccc1 [Compound B, 6-chloro-3-[3-(4-chlorophenyl)ureido]-4-phenylquinoline, reference compound]",ACAT inhibitory activity (in words): excellent ACAT inhibitory activities; ACAT inhibitory activity (in words) (listed as compound B): strong ACAT inhibitory activity
90.1,"Cc1cc(C)c2ncc(N(Cc3cc(C(C)(C)C)c(O)c(C(C)(C)C)c3)C(=O)Nc3ccc(F)cc3F)c(-c3ccccc3Cl)c2c1 [Example 67, 3-[1-(3,5-Di-tert-butyl-4-hydroxybenzyl)-3-(2,4-difluorophenyl)ureido]-4-(2-chlorophenyl)-6,8-dimethylquinoline]",
98,"COc1ccc(-c2c(NC(=O)Nc3ccc(F)cc3F)cnc3ccc(Cl)cc23)c(OC)c1OC [Example 68, 6-Chloro-3-[3-(2,4-difluorophenyl)ureido]-4-(2,3,4-trimethoxyphenyl)quinoline]",
75,"O=C(Nc1ccccc1F)Nc1cnc2ccc(Cl)cc2c1-c1ccccc1 [Example 4, 6-Chloro-3-[3-(2-fluorophenyl)ureido]-4-phenylquinoline]",
98.5,"Cc1cc(C)c2ncc(NC(=O)Nc3ccc(F)cc3F)c(-c3ccccc3C)c2c1 [Example 39, 3-[3-(2,4-Difluorophenyl)ureido]-6,8-dimethyl-4-(2-methylphenyl)quinoline]","inhibition at 0.01 µM (10^-8 M test compound, read-out: ACAT Inhibition Rate): 43.3%"
95.9,"Cc1cc(C)c2ncc(NC(=O)Nc3cc(C)c(O)c(C)c3)c(-c3ccccc3Cl)c2c1 [Example 80, 4-(2-Chlorophenyl)-3-[3-(4-hydroxy-3,5-dimethylphenyl)ureido]-6,8-dimethylquinoline]",
99.6,"Cc1cc2ncc(NC(=O)Nc3ccc(F)cc3F)c(-c3ccccc3Cl)c2cc1C [Example 73, 4-(2-Chlorophenyl)-3-[3-(2,4-difluorophenyl)ureido]-6,7-dimethylquinoline]",
85.9,"COc1ccc2ncc(NC(=O)Nc3ccc(F)cc3F)c(-c3ccccc3)c2c1 [Example 18, 3-[3-(2,4-Difluorophenyl)ureido]-6-methoxy-4-phenylquinoline]",
97.3,"Cc1cc(C)c2ncc(NC(=O)Nc3ccc([N+](=O)[O-])cc3)c(-c3ccccc3Cl)c2c1 [Example 72, 4-(2-Chlorophenyl)-3-[3-(4-nitrophenyl)ureido]-6,8-dimethylquinoline]",
85.5,"O=C(Nc1ccc(F)cc1F)Nc1cnc2ccc(Br)cc2c1-c1ccccc1 [Example 11, 6-Bromo-3-[3-(2,4-difluorophenyl)ureido]-4-phenylquinoline]",
69.7,"COc1cc(NC(=O)Nc2cnc3c(C)cc(C)cc3c2-c2ccccc2Cl)cc(OC)c1OC [Example 64, 4-(2-chlorophenyl)-6,8-dimethyl-3-[3-(3,4,5-trimethoxyphenyl)ureido]-quinoline]",
80.7,"O=C(Nc1ccc(F)cc1F)Nc1cnc2ccc(OC(F)F)cc2c1-c1ccccc1 [Example 54, 6-Difluoromethoxy-3-[3-(2,4-difluorophenyl)ureido]-4 4-phenylquinoline]",
96.8,"O=C(Nc1ccc(F)cc1F)Nc1cnc2ccc(Cl)cc2c1-c1ccccc1F [Example 22, 6-Chloro-3-[3-(2,4-difluorophenyl)ureido]-4-(2-fluorophenyl)quinoline]",
